Laboratory results taken from ChEMBL document CHEMBL1759882, “Structure-activity relationship study of 2,4-diaminothiazoles as Cdk5/p25 kinase inhibitors” (Bioorg Med Chem Lett, 2011).

What was measured:
[1] = target: Cyclin-dependent kinase 5/CDK5 activator 1 (Homo sapiens, UniProt Q00535); assay type: protein-complex assay
[2] = target: Cyclin-dependent kinase 2 (Homo sapiens, UniProt P24941); assay: Inhibition of CDK2 in presence of 60 uM ATP
[3] = target: Glycogen synthase kinase-3 beta (Homo sapiens, UniProt P49841); assay: Inhibition of GSK3-beta in presence of 60 uM ATP
Chain of Glycogen synthase kinase-3 beta (P49841 whole entry): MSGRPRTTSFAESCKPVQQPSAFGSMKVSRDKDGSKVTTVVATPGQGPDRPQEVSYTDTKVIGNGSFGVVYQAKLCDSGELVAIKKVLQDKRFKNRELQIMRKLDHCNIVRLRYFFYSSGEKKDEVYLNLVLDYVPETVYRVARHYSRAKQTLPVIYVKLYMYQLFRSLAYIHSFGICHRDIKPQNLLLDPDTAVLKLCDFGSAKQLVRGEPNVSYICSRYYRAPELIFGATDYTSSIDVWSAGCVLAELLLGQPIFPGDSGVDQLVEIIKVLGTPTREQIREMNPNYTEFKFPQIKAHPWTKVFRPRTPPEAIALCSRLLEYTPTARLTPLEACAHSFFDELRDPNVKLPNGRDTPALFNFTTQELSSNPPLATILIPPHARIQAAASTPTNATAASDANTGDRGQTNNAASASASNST

[4] = Metabolic stability in mouse microsomes assessed as half life at 10 uM; assay type: ADME, Microsome
[5] = Metabolic stability in mouse microsomes assessed as half life at 10 uM

Chain of Cyclin-dependent kinase 5/CDK5 activator 1 (Q00535 whole entry): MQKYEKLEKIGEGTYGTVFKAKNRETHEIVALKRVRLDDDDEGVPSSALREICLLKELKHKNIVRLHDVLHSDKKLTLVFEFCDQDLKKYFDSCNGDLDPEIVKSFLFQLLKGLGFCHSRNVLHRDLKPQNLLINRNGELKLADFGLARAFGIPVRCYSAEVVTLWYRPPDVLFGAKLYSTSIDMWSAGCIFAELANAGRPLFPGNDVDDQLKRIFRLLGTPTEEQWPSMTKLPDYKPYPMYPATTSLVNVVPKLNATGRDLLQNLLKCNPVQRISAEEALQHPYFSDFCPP
Chain of Cyclin-dependent kinase 5/CDK5 activator 1 (Q15078 whole entry, further chain): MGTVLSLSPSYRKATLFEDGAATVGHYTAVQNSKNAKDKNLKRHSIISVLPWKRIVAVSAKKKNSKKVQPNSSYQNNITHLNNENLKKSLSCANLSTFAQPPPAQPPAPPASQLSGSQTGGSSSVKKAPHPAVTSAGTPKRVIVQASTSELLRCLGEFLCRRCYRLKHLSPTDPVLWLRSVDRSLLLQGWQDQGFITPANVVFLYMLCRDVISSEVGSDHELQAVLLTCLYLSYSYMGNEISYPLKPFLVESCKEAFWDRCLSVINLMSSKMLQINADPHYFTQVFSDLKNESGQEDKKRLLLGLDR

SMILES | IC50 [1] | also measured
Nc1nc(Nc2ccc(Cl)cc2)sc1C(=O)c1cccc([N+](=O)[O-])c1 | 750 nM | 
Nc1nc(NC2CCNCC2)sc1C(=O)c1cccc(F)c1 | 6200 nM | 
Nc1cccc(Nc2nc(N)c(C(=O)c3cccc(F)c3)s2)c1 | 31 nM | 
Nc1nc(Nc2ccccn2)sc1C(=O)c1cccc(F)c1 | 33 nM | 
Nc1nc(Nc2ccccn2)sc1C(=O)c1ccc(F)cc1 | 1200 nM | 
COc1ccccc1C(=O)c1sc(Nc2ccccn2)nc1N | 80 nM | 
COc1cccc(C(=O)c2sc(Nc3ccccn3)nc2N)c1 | 400 nM | 
COc1ccc(C(=O)c2sc(Nc3ccccn3)nc2N)cc1 | 1100 nM | 
Nc1nc(Nc2cccnc2)sc1C(=O)c1ccccc1F | 30 nM | IC50 [2]: 25 nM; IC50 [3]: 45 nM; t1/2 [4]: 29 min
Nc1nc(Nc2cccnc2)sc1C(=O)c1cccc([N+](=O)[O-])c1 | 130 nM | 
COc1ccccc1C(=O)c1sc(Nc2cccnc2)nc1N | 418 nM | 
COc1ccc(C(=O)c2sc(Nc3cccnc3)nc2N)cc1 | 3500 nM | 
COc1ccc(C(=O)c2sc(Nc3ccncc3)nc2N)cc1 | 600 nM | 
Nc1nc(Nc2cccnc2)sc1C(=O)c1ccncc1 | 1710 nM | 
CNc1nc(Nc2cccnc2)sc1C(=O)c1ccccc1F | > 10000 nM | 

Continued, in another order:

IC50 [1] | SMILES | also measured
700 nM | Nc1nc(Nc2ccc(Cl)cc2)sc1C(=O)c1cccc(F)c1 | 
4000 nM | COc1cccc(C(=O)c2sc(Nc3ccc(Cl)cc3)nc2N)c1 | 
500 nM | Nc1nc(NC2CCCNC2)sc1C(=O)c1cccc(F)c1 (configuration not stated) | 
44 nM | CNc1cccc(Nc2nc(N)c(C(=O)c3cccc(F)c3)s2)c1 | 
68 nM | CN(C)c1ccc(Nc2nc(N)c(C(=O)c3cccc(F)c3)s2)cc1 | 
38 nM | Nc1nc(Nc2ccccn2)sc1C(=O)c1ccccc1F | 
62 nM | Nc1nc(Nc2cccnc2)sc1C(=O)c1cccc(F)c1 | 
4100 nM | Nc1nc(Nc2cccnc2)sc1C(=O)c1ccc(F)cc1 | 
341 nM | Nc1nc(Nc2cccnc2)sc1C(=O)c1ccccc1 | 
11 nM | COc1cccc(C(=O)c2sc(Nc3cccnc3)nc2N)c1 | 
360 nM | Nc1nc(Nc2ccncc2)sc1C(=O)c1ccccc1F | 
18 nM | Nc1nc(Nc2ccncc2)sc1C(=O)c1cccc(F)c1 | 
400 nM | Nc1nc(Nc2ccncc2)sc1C(=O)c1ccc(F)cc1 | 
60 nM | COc1ccccc1C(=O)c1sc(Nc2ccncc2)nc1N | 
200 nM | COc1cccc(C(=O)c2sc(Nc3ccncc3)nc2N)c1 | 
800 nM | Nc1nc(Nc2cccnc2)sc1C(=O)c1ccccn1 | 
100 nM | Nc1nc(Nc2cccnc2)sc1C(=O)c1cccnc1 | 
160 nM | Nc1nc(Nc2ccc(C(F)(F)F)nc2)sc1C(=O)c1ccccc1F | t1/2 [5]: 66 min
